Earlier results as cited in PMC4067310, “From Pan-Reactive KV7 Channel Opener to Subtype Selective Opener/Inhibitor by Addition of a Methyl Group” (PLoS ONE, 2014).
Where a chain is given by its changes, count along the chain named.

Assays:
KV7.4 = target: T1, KV7.4 (Homo sapiens, UniProt P56696); parameters: method as in PMID 20011514; settings: +40 mV; cited from earlier work
T1 construct: expressed in transfected cells; host or cells: Xenopus laevis oocytes injected with cRNA (pGEM-HE vector)
T1 sequence (P56696 1-695): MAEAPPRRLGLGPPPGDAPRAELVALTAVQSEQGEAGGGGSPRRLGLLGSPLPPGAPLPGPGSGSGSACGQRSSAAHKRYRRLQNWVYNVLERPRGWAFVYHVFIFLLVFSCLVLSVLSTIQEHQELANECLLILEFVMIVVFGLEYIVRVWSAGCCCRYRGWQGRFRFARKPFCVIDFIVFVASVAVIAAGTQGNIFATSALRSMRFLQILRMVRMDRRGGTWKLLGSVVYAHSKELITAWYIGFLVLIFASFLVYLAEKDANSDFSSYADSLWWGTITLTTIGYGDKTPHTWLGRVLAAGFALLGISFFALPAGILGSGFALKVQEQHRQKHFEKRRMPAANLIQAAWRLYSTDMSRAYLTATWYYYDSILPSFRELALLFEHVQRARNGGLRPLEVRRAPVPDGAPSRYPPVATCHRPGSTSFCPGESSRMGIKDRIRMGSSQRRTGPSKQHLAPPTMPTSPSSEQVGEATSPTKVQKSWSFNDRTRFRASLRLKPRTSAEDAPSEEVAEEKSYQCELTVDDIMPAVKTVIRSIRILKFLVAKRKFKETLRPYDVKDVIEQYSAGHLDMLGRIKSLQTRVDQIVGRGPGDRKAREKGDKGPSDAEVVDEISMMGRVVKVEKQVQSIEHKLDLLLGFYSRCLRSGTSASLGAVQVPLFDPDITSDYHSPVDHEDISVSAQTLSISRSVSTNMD

KV7.2-W236L = target: T2, KV7.2-W236L (Homo sapiens, UniProt O43526, W236L); parameters: method as in PMID 20011514; settings: all activating effects lost; cited from earlier work
T2 construct: expressed in transfected cells; host or cells: Xenopus laevis oocytes injected with cRNA (pGEM-HE vector)
T2 sequence (O43526 whole entry W236L): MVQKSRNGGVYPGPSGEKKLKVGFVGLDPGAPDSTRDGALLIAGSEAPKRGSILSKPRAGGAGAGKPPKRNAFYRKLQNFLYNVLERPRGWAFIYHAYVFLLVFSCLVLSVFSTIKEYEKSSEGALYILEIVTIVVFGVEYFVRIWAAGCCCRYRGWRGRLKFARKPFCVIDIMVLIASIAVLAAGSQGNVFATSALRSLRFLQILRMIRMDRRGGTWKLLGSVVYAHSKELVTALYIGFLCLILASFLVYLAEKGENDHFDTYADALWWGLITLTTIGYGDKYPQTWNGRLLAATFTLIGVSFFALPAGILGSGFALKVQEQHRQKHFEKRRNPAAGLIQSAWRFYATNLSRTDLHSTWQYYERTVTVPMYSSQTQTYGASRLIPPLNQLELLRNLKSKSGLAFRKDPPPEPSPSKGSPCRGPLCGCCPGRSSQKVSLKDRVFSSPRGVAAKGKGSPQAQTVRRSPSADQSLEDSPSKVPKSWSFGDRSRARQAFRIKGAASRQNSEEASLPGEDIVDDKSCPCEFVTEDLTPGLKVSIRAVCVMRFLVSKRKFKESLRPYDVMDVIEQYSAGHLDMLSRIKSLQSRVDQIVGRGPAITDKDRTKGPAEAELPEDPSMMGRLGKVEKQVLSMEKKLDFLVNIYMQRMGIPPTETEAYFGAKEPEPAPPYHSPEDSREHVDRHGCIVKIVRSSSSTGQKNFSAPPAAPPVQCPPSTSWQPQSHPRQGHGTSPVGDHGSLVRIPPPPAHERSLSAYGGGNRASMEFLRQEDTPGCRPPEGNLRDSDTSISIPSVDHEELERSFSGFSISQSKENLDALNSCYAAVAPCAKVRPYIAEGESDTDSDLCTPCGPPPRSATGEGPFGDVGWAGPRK

KV7.4-W242L = target: T3, KV7.4-W242L (Homo sapiens, UniProt P56696, W242L); settings: cited from earlier work
T3 construct: expressed in transfected cells; host or cells: Xenopus laevis oocytes injected with cRNA (pGEM-HE vector)
T3 sequence (P56696 1-695 W242L): T1 sequence (P56696 1-695) with W242L

## C[C@H](NC(=O)/C=C/c1ccccc1F)c1ccc2c(c1)N(CC1CC1)CCO2 [(S)-2]
KV7.4
  efficacy, current amplitude % of control: 1927 % of control
KV7.2-W236L
  effect on KV7.2-W236L: purely inhibitory
KV7.4-W242L
  effect on KV7.4-W242L: fully insensitive
